Test results: US20150105252A1, “SUBSTITUTED PYRAZOLES AS HERBICIDES” (E I DU PONT DE NEMOURS AND COMPANY, priority 2013, published 2015)

Key:
[1] = system: barnyardgrass; test: Test B flood; format: in vivo, Echinochloa crus-galli; conditions: 250 g ai/ha, visual rating on 0 to 100 scale (0 no effect, 100 complete control), 13 to 15 days
How it was run: (§1)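 Paddy-water application: seedlings at 2-leaf stage, flood depth 3 cm maintained for the test duration. Evaluation after 13–15 days in the greenhouse by eye relative to controls; 0–100 scale.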

[2] = system: pigweed; test: Test A preemergence; format: in vivo, Amaranthus retroflexus; conditions: preemergence
How it was run: (§2)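 Pre- and postemergence greenhouse test; loam+sand; cpd in non-phytotox. solvent/surfactant; post at 1–2 leaf, 2–10 cm; visual score ~10 d, 0 = none, 100 = complete control.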

[3] = system: velvetleaf; test: Test A preemergence; format: in vivo, Abutilon theophrasti; conditions: preemergence
How it was run: as §2

[4] = system: ducksalad; test: Test B flood; format: in vivo, Heteranthera limosa; conditions: 250 g ai/ha, visual rating on 0 to 100 scale (0 no effect, 100 complete control), 13 to 15 days
How it was run: as §1

[5] = system: pigweed; test: Test A postemergence; format: in vivo, Amaranthus retroflexus
How it was run: as §2

[6] = system: wheat; test: Test A preemergence; format: in vivo, Triticum aestivum; conditions: preemergence
How it was run: as §2

[7] = system: crabgrass, large; test: Test A postemergence; format: in vivo, Digitaria sanguinalis
How it was run: as §2

[8] = system: ducksalad; test: Test C flooded paddy test; format: in vivo, Heteranthera limosa; conditions: Flood
How it was run: (§3)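 Pots were flooded to 3 cm above the soil surface at treatment, compound applied directly to the paddy water, and that depth held throughout. Plants were kept in a greenhouse for 13 to 15 days, then visually rated against untreated controls.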

[9] = system: morningglory; test: Test A preemergence; format: in vivo, Ipomoea spp.; conditions: preemergence
How it was run: as §2

[10] = system: sedge, umbrella; test: Test C flooded paddy test; format: in vivo, Cyperus difformis; conditions: Flood
How it was run: as §3

[11] = system: barnyardgrass; test: Test C flooded paddy test; format: in vivo, Echinochloa crus-galli; conditions: Flood
How it was run: as §3

[12] = system: wheat; test: Test A postemergence; format: in vivo, Triticum aestivum
How it was run: as §2

[13] = system: barnyardgrass; test: Test A preemergence; format: in vivo, Echinochloa crus-galli; conditions: preemergence
How it was run: as §2

[14] = system: corn; test: Test A preemergence; format: in vivo, Zea mays; conditions: preemergence
How it was run: as §2

[15] = system: sedge, umbrella; test: Test B flood; format: in vivo, Cyperus difformis; conditions: 250 g ai/ha, visual rating on 0 to 100 scale (0 no effect, 100 complete control), 13 to 15 days
How it was run: as §1

[16] = system: rice; test: Test B flood; format: in vivo, Oryza sativa; conditions: 250 g ai/ha, visual rating on 0 to 100 scale (0 no effect, 100 complete control), 13 to 15 days
How it was run: as §1

[17] = system: rice; test: Test C flooded paddy test; format: in vivo, Oryza sativa; conditions: Flood
How it was run: as §3

[18] = system: foxtail, giant; test: Test A postemergence; format: in vivo, Setaria faberii
How it was run: as §2

[19] = system: barnyardgrass; test: Test A postemergence; format: in vivo, Echinochloa crus-galli
How it was run: as §2

[20] = system: crabgrass, large; test: Test A preemergence; format: in vivo, Digitaria sanguinalis; conditions: preemergence
How it was run: as §2

[21] = system: morningglory; test: Test A postemergence; format: in vivo, Ipomoea spp.
How it was run: as §2

[22] = system: velvetleaf; test: Test A postemergence; format: in vivo, Abutilon theophrasti
How it was run: as §2

[23] = system: foxtail, giant; test: Test A preemergence; format: in vivo, Setaria faberii; conditions: preemergence
How it was run: as §2

[24] = system: corn; test: Test A postemergence; format: in vivo, Zea mays
How it was run: as §2

[25] = 125 g ai/ha, visual injury, 0 to 100 scale, approx. 10 days
[26] = 500 g ai/ha, visual injury after approx. 10 days, 0 to 100 scale (0 no effect, 100 complete control)
[27] = Postemergence, 500 g ai/ha, 0 to 100 scale (0 no effect, 100 complete control)
[28] = postemergence, 125 g ai/ha, about 10 days, visual rating on 0 to 100 scale (0 no effect, 100 complete control)
[29] = 31 g ai/ha, scale 0 to 100 (0 no effect, 100 complete control)
[30] = 62 g ai/ha, scale 0 to 100 (0 no effect, 100 complete control)

CCCCNC(=O)c1cc(CC)n(Cc2ccnc(C(F)(F)F)c2)n1 [Compound 141]
Plant response rating, Barnyardgrass [1]: 45
Pigweed plant response rating [2, 25]: 100
Pigweed plant response rating [2, 26]: 100
Velvetleaf plant response rating [3, 25]: 10
Velvetleaf plant response rating [3, 26]: 50
Plant response rating, Ducksalad [4]: 100
Pigweed plant response rating [5, 27]: 100
Pigweed plant response rating [5, 28]: 60
Wheat plant response rating [6, 25]: 30
Wheat plant response rating [6, 26]: 90
Crabgrass, Large plant response rating [7, 27]: 90
Crabgrass, Large plant response rating [7, 28]: 70
Plant response rating, Ducksalad [8, 29]: 40
Plant response rating, Ducksalad [8, 30]: 80
Plant response rating, Ducksalad ([8]; 125 g ai/ha, scale 0 to 100): 95
Plant response rating, Ducksalad ([8]; 250 g ai/ha, scale 0 to 100): 100
Morningglory plant response rating [9, 25]: 50
Morningglory plant response rating [9, 26]: 100
Plant response rating, Sedge, Umbrella [10, 29]: 30
Plant response rating, Sedge, Umbrella [10, 30]: 70
Plant response rating, Sedge, Umbrella ([10]; 125 g ai/ha, scale 0 to 100): 95
Plant response rating, Sedge, Umbrella ([10]; 250 g ai/ha, scale 0 to 100): 100
Plant response rating, Barnyardgrass [11, 29]: 0
Plant response rating, Barnyardgrass [11, 30]: 0
Plant response rating, Barnyardgrass ([11]; 125 g ai/ha, scale 0 to 100): 20
Plant response rating, Barnyardgrass ([11]; 250 g ai/ha, scale 0 to 100): 35
Wheat plant response rating [12, 27]: 80
Wheat plant response rating [12, 28]: 30
Barnyardgrass plant response rating [13, 25]: 70
Barnyardgrass plant response rating [13, 26]: 100
Corn plant response rating [14, 25]: 40
Corn plant response rating [14, 26]: 80
Plant response rating, Sedge, Umbrella [15]: 95
Plant response rating, Rice [16]: 20
Plant response rating, Rice [17, 29]: 0
Plant response rating, Rice [17, 30]: 0
Plant response rating, Rice ([17]; 125 g ai/ha, scale 0 to 100): 20
Plant response rating, Rice ([17]; 250 g ai/ha, scale 0 to 100): 20
Foxtail, Giant plant response rating [18, 27]: 90
Foxtail, Giant plant response rating [18, 28]: 80
Barnyardgrass plant response rating [19, 27]: 80
Barnyardgrass plant response rating [19, 28]: 40
Crabgrass, Large plant response rating [20, 25]: 100
Crabgrass, Large plant response rating [20, 26]: 100
Morningglory plant response rating [21, 27]: 100
Morningglory plant response rating [21, 28]: 90
Velvetleaf plant response rating [22, 27]: 100
Velvetleaf plant response rating [22, 28]: 30
Foxtail, Giant plant response rating [23, 25]: 90
Foxtail, Giant plant response rating [23, 26]: 100
Corn plant response rating [24, 27]: 90
Corn plant response rating [24, 28]: 50
